Where “and” joins values, the source holds several entries; their conditions need not be identical. Equal values may be shown once. Inconclusive results and toxic doses are left out.
Tested on: C3H/He mice, Gardner lymphosarcoma 6C3HED ip, survival T/C
Experiment: NCI In Vivo Anticancer Drug Screen. Data for tumor model Lymphosarcoma Gardner 6C3HED (intraperitoneal) in C3H/He mice
Conditions: higher = longer survival
Experimental: The antitumor activity of compounds was measured in mice bearing transplantable tumors. Survival or tumor size were measured and the results are expressed as the measurement made in the treated group (T) divided by the measurement made in the vehicle treated control group (C). The tumor model used in this assay is Lymphosarcoma Gardner 6C3HED (intraperitoneal) in C3H/He mice

[1] = endpoint: survival time, mean or median, dose: 12.5 mg/kg/injection, schedule: Q01DX010 (ip), vehicle: saline
[2] = endpoint: survival time, mean or median, dose: 25.0 mg/kg/injection, schedule: Q01DX010 (ip), vehicle: saline
[3] = endpoint: survival time, mean or median, dose: 50.0 mg/kg/injection, schedule: Q01DX010 (ip), vehicle: saline
[4] = endpoint: survival time, mean or median, dose: 100.0 mg/kg/injection, schedule: Q01DX010 (ip), vehicle: saline
[5] = endpoint: survival time, mean or median, dose: 1.56 mg/kg/injection, schedule: Q01DX010 (ip), vehicle: saline
[6] = endpoint: survival time, mean or median, dose: 3.13 mg/kg/injection, schedule: Q01DX010 (ip), vehicle: saline
[7] = endpoint: survival time, mean or median, dose: 2.5 mg/kg/injection, schedule: Q01DX010 (ip), vehicle: saline
[8] = endpoint: survival time, mean or median, dose: 5.0 mg/kg/injection, schedule: Q01DX010 (ip), vehicle: saline
[9] = endpoint: survival time, mean or median, dose: 10.0 mg/kg/injection, schedule: Q01DX010 (ip), vehicle: saline
[10] = endpoint: survival time, mean or median, dose: 20.0 mg/kg/injection, schedule: Q01DX010 (ip), vehicle: saline

## C[C@@H]1C[C@H]2CC[C@H](O2)[C@H](C)C(=O)O[C@@H](C)C[C@@H]2CC[C@@H](O2)[C@@H](C)C(=O)O[C@H](C)C[C@H]2CC[C@H](O2)[C@H](C)C(=O)O[C@@H](C)C[C@@H]2CC[C@@H](O2)[C@@H](C)C(=O)O1
[1]
  T/C: 100 % of control
[2]
  T/C: 92 % of control
[3]
  T/C: 96 % of control

## COC1C(OC(=O)/C=C/C=C/C=C/C=C/C(=O)O)CCC2(CO2)C1C1(C)OC1CC=C(C)C (centres undefined)
[1]
  T/C: 102 % of control
[2]
  T/C: 110 % of control
[3]
  T/C: 110 % of control
[4]
  T/C: 100 % of control

## NC(=O)N(CCCl)N=O
endpoint: survival time, mean or median, dose: 0.5 mg/kg/injection, schedule: Q01DX010 (ip), vehicle: saline
  T/C: 204 % of control
endpoint: survival time, mean or median, dose: 1.0 mg/kg/injection, schedule: Q01DX010 (ip), vehicle: saline
  T/C: 228 % of control
endpoint: survival time, mean or median, dose: 2.0 mg/kg/injection, schedule: Q01DX010 (ip), vehicle: saline
  T/C: 161 % of control
endpoint: survival time, mean or median, dose: 4.0 mg/kg/injection, schedule: Q01DX010 (ip), vehicle: saline
  T/C: 100 % of control

## CS(=O)(=O)OCCCCOS(C)(=O)=O
[5]
  T/C: 95 % of control
[6]
  T/C: 90 % of control
endpoint: survival time, mean or median, dose: 6.25 mg/kg/injection, schedule: Q01DX010 (ip), vehicle: saline
  T/C: 95 % of control
[1]
  T/C: 104 % of control

## OC(CBr)C(O)C(O)C(O)CBr (centres undefined)
[2]
  T/C: 88 % of control and 96 % of control
[3]
  T/C: 88 % of control and 110 % of control
[4]
  T/C: 100 % of control and 110 % of control
endpoint: survival time, mean or median, dose: 200.0 mg/kg/injection, schedule: Q01DX010 (ip), vehicle: saline
  T/C: 88 % of control and 110 % of control

## CCC(=O)O[C@H]1CC[C@H]2[C@@H]3CCC4=CC(=O)CC[C@]4(C)[C@H]3CC[C@]12C
endpoint: survival time, mean or median, dose: 62.5 mg/kg/injection, schedule: Q01DX010 (sc), vehicle: steriod suspending solution
  T/C: 90 % of control
endpoint: survival time, mean or median, dose: 125.0 mg/kg/injection, schedule: Q01DX010 (sc), vehicle: steriod suspending solution
  T/C: 90 % of control
endpoint: survival time, mean or median, dose: 250.0 mg/kg/injection, schedule: Q01DX010 (sc), vehicle: steriod suspending solution
  T/C: 96 % of control
endpoint: survival time, mean or median, dose: 500.0 mg/kg/injection, schedule: Q01DX010 (sc), vehicle: steriod suspending solution
  T/C: 100 % of control

## CC(=O)O[C@]1(C(C)=O)CC[C@H]2[C@@H]3C[C@H](C)C4=CC(=O)C=C[C@]4(C)[C@@]3(F)[C@@H](O)C[C@@]21C
endpoint: survival time, mean or median, dose: 6.25 mg/kg/injection, schedule: Q01DX010 (sc), vehicle: steriod suspending solution
  T/C: 100 % of control
endpoint: survival time, mean or median, dose: 12.5 mg/kg/injection, schedule: Q01DX010 (sc), vehicle: steriod suspending solution
  T/C: 96 % of control
endpoint: survival time, mean or median, dose: 25.0 mg/kg/injection, schedule: Q01DX010 (sc), vehicle: steriod suspending solution
  T/C: 92 % of control
endpoint: survival time, mean or median, dose: 50.0 mg/kg/injection, schedule: Q01DX010 (sc), vehicle: steriod suspending solution
  T/C: 92 % of control

## CCOC(=O)NP(=O)(N1CC1)N1CC1
[7]
  T/C: 100 % of control and 107 % of control
[8]
  T/C: 107 % of control and 117 % of control
[9]
  T/C: 157 % of control
[10]
  T/C: 92 % of control and 103 % of control

## CC[C@@H](c1ccc(O)cc1)[C@@H](CC)c1ccc(O)cc1
endpoint: survival time, mean or median, dose: 25.0 mg/kg/injection, schedule: Q01DX010 (sc), vehicle: water
  T/C: 96 % of control
endpoint: survival time, mean or median, dose: 50.0 mg/kg/injection, schedule: Q01DX010 (sc), vehicle: water
  T/C: 93 % of control
endpoint: survival time, mean or median, dose: 100.0 mg/kg/injection, schedule: Q01DX010 (sc), vehicle: water
  T/C: 93 % of control

## Cc1n[nH]c(=O)[nH]c1=O
endpoint: survival time, mean or median, dose: 125.0 mg/kg/injection, schedule: Q01DX010 (ip), vehicle: saline
  T/C: 106 % of control
endpoint: survival time, mean or median, dose: 250.0 mg/kg/injection, schedule: Q01DX010 (ip), vehicle: saline
  T/C: 90 % of control
endpoint: survival time, mean or median, dose: 1000.0 mg/kg/injection, schedule: Q01DX010 (ip), vehicle: saline
  T/C: 90 % of control

## COc1cc(-c2ccc(Nc3ccccc3C(=O)O)c(OC)c2)ccc1N
[8]
  T/C: 110 % of control
[9]
  T/C: 96 % of control and 107 % of control
[10]
  T/C: 92 % of control
endpoint: survival time, mean or median, dose: 40.0 mg/kg/injection, schedule: Q01DX010 (ip), vehicle: saline
  T/C: 89 % of control and 96 % of control
endpoint: survival time, mean or median, dose: 80.0 mg/kg/injection, schedule: Q01DX010 (ip), vehicle: saline
  T/C: 89 % of control

## NC(CC(=O)O)C(=O)O (centres undefined)
endpoint: median survival time, dose: 50.0 mg/kg/injection, schedule: Q01DX005 (ip), vehicle: water
  T/C: 88 % of control
endpoint: median survival time, dose: 100.0 mg/kg/injection, schedule: Q01DX005 (ip), vehicle: water
  T/C: 92 % of control
endpoint: median survival time, dose: 200.0 mg/kg/injection, schedule: Q01DX005 (ip), vehicle: water
  T/C: 92 % of control

## COc1cc(-c2ccc(Nc3ccccc3C(=O)O)c(OC)c2)ccc1Nc1ccccc1C(=O)O
[1]
  T/C: 117 % of control
[2]
  T/C: 107 % of control and 117 % of control
[3]
  T/C: 117 % of control and 118 % of control
[4]
  T/C: 96 % of control

## [I][Hg][CH2]C1COC([CH2][Hg][I])CO1 (centres undefined)
[5]
  T/C: 93 % of control
[6]
  T/C: 100 % of control

## N#[N+]c1cnc([O-])[nH]c1=O
endpoint: survival time, mean or median, dose: 1.25 mg/kg/injection, schedule: Q01DX010 (ip), vehicle: saline
  T/C: 123 % of control
[7]
  T/C: 150 % of control
[8]
  T/C: 106 % of control

Source: PubChem BioAssay AID230 (DTP/NCI, 2004)
